Assay results reported in patent US20090111836A1, “Angular Pyranocoumarins, Process for Preparation and Uses Thereof” (CITY UNIVERSITY OF HONG KONG, priority 2007, published 2009).
Entries after “also recorded” stand apart in the source; their conditions may differ.

Tests used:
Type in all cases: cell-based, human
P-gp = assay: Immunoblotting analysis of P-gp expression, K562-DR; details: 4 μM, 72 hours
Experimental: Immunoblotting analysis of P-gp expression: cells were treated with 4 μM of cis-DMDCK, 4 μM of cis-DMDBK, 4 μM of trans-DMDCK, or 4 μM of trans-DMDBK for 72 hours. Treated cells were collected and mixed well in ice-cold lysis buffer (50 mM Tris pH7.4, 100 mM NaCl, 2 mM EDTA, 1% sodium deoxycholate, 0.1% SDS, 1% triton X-100, 2 mM PMSF, 1% aprotinin) for 30 minutes and then centrifuged to get the total protein. Protein concentration was determined using Bradford assay. In this experiment, 50 μg total protein was separated by 8% SDS-PAGE and electro-transferred to nitrocellulose membranes. The membrane was blocked by 5% skim milk/0.1% Tween-20/TBS (10 mM Tris pH7.5, 100 mM NaCl), and then incubated with anti-P-pg antibody for 1 hour, followed by horseradish-peroxidase-conjugated secondary antibody for another 1 hour. Protein bands were detected by the ECL method.

KB V1 cells = assay: Reversal of multidrug resistance (fold decrease of anticancer drug IC50), KB V1
Experimental: Cells and cell culture: cell lines used in the experiments are human hepatoma cell line (HepG2), human leukemia cell line (K562), human epidermoid carcinoma cell line (KB-3-1) and their multidrug resistant sublines HepG2-DR, K562-DR. and KB V1. The culture conditions for all cells are following: at 37° C. and 5% CO2), KB-3-1 and KBV1 were cultured in MEM medium containing 10% fetal bovine serum and 100 U/mL antibiotics; K562, K562-DR, HepG2, HepG2-DR were cultured in RPMI-1640 medium containing 10% fetal bovine serum and 100 U/mL, antibiotics. For maintaining the phenotypic characteristics of multidrug resistance, 1.2 μM and 0.1 μM doxorubicin were respectively added into the mediums of HepG2-DR and K562-DR; 200 ng/mL vinblastine was added into the medium of KBV1. Drug resistant cells were grown in drug free medium for at least 7 days before test.
Each growth inhibition experiment must be repeated three times and results are expressed as mean±standard deviation (SD). Solvents and media were included as blank control.
In SRB assay, cells are inoculated at 5000 cells/well in a 96-well microplate and incubated overnight to let cells adhere. Drug treatment lasts for 72 hours and cells are fixed for 1 hour at 4° C. with 50 μl ice-cold 15% trichloroacetic acid and washed with triple-distilled water 5 times. Cellular protein is stained by adding 50 μl of 0.4% SRB in 1% acetic acid for 10 minutes, rinsed with 1% acetic acid 5 times and air-dried. The protein-bound dye is dissolved in 100 μl per well of 10 mM Tris base (pH 10.5). The color intensity of SRB, which positively correlate to cell number in preliminary experiments, is estimated at OD 515 nm.
1. Materials and methods: the same with I.
To evaluate the multidrug resistance reversing ability of (±)-Praeruptorin A derivatives, IC50 values of anticancer drugs in the presence and absence of cis-DMDCK, cis-DMDBK, trans-DMDCK, or trans-DMDBK at certain concentration were determined in HepG2-DR, K562-DR and KB V1 cells. The fold decrease of IC50 value of an anticancer drug in certain cell line achieved by a test compound is calculated (fold decrease=IC50 of an anti-tumor drug alone/IC50 of the anti-tumor drug in combination with the test compound) and is used for evaluating the ability of the test compound to reduce drug resistance. The larger the fold decrease value is, the stronger its ability to reverse drug resistance is. The results were average values of three repetitive tests. Verapamil (P-glycoprotein modulator) is the positive control.

HepG2-DR cells = assay: Cell cycle distribution by flow cytometry (doxorubicin-induced G2/M arrest), HepG2-DR; details: HepG2-DR; for Cell cycle distribution, G0/G1 / Cell cycle distribution, G2/M / Cell cycle distribution, S / Cell cycle distribution, SubG1: 48 h
Experimental: 1.2 Instruments: FACSCAN flow cytometry (Becton Dickinson Immunocytometry Systems, San Jose, Calif.), the obtained data were analyzed using the software of Macintosh CellQuest.
1.3 Cell lines: HepG2, HepG2-DR.
1.4 Drug treatment: HepG2 and HepG2-DR cells were respectively treated with each of cis-DMDCK, cis-DMDBK, trans-DMDCK, trans-DMDBK and doxorubicin for 48 hours, or treated respectively with the combination of doxorubicin and one of cis-DMDCK, cis-DMDBK, trans-DMDCK, trans-DMDBK for 48 hours.
1.5 Treatment and detection of sample cells: after washed twice by ice-cold PBS, the cells were fixed with 70% ethanol at −20° C. overnight. The fixed cells were washed by PBS once and resuspended in 1 mL of PBS containing 100 μg/mL RNAase A and incubated at 37° C. for 30 minutes. Finally, propidium iodide solution (final concentration is 40 μg/mL,) was added to bind with DNA and incubated at room temperature for 5-10 minutes. Cells were analyzed by FACSCAN flow cytometry immediately.

[1] = 1 μM doxorubicin + 0.5 μM test compound
[2] = 1 μM doxorubicin + 1 μM test compound
[3] = 1 μM doxorubicin + 2 μM test compound

## COc1ccc(C(=O)O[C@@H]2c3c(ccc4ccc(=O)oc34)OC(C)(C)[C@@H]2OC(=O)c2ccc(OC)c(OC)c2)cc1OC (racemic) [cis-DMDBK, (±)-3′-O,4′-O-bis(3,4-dimethoxybenzoyl)-cis-khellactone]
P-gp
  Change in P-gp (MDR1) expression level: no detectable alteration; also recorded: not observed
KB V1 cells; KB V1, 2 μM test compound
  Reversing parameter: fold decrease of IC50, verapamil: 6.8 ± 2.9 fold
  Reversing parameter: fold decrease of IC50 of Doxorubicin: 5.6 ± 2.4 fold
  Reversing parameter: fold decrease of IC50 of Puromycin: 15.4 ± 3.3 fold
  Reversing parameter: fold decrease of IC50 of Vinblastine: 3.5 ± 1.4 fold
KB V1 cells; KB V1, 4 μM test compound
  Reversing parameter: fold decrease of IC50, verapamil: 83.3 ± 35.3 fold
  Reversing parameter: fold decrease of IC50 of Doxorubicin: 16.1 ± 9.5 fold
  Reversing parameter: fold decrease of IC50 of Puromycin: 36.8 ± 16.6 fold
  Reversing parameter: fold decrease of IC50 of Vinblastine: 51.6 ± 11.0 fold
HepG2-DR cells; [1]
  Cell cycle distribution, G0/G1: 35.82 ± 2.26%
  Cell cycle distribution, G2/M: 52.79 ± 5.64%
  Cell cycle distribution, S: 6.44 ± 0.77%
  Cell cycle distribution, SubG1: 2.92 ± 1.09%
HepG2-DR cells; [2]
  Cell cycle distribution, G0/G1: 13.52 ± 1.36%
  Cell cycle distribution, G2/M: 73.03 ± 1.89%
  Cell cycle distribution, S: 5.85 ± 3.09%
  Cell cycle distribution, SubG1: 4.08 ± 0.81%
HepG2-DR cells; [3]
  Cell cycle distribution, G0/G1: 3.74 ± 0.76%
  Cell cycle distribution, G2/M: 79.01 ± 6.01%
  Cell cycle distribution, S: 6.86 ± 2.57%
  Cell cycle distribution, SubG1: 7.13 ± 6.57%
HepG2-DR cells; 4 μM alone
  Effect on cell cycle by itself: no effect
  Cell cycle distribution, G0/G1: 52.36 ± 0.98%
  Cell cycle distribution, G2/M: 34.36 ± 0.42%
  Cell cycle distribution, S: 7.66 ± 3.22%
  Cell cycle distribution, SubG1: 2.27 ± 0.49%
HepG2-DR cells; combination with doxorubicin
  Concentration of test compound that reduced the effective doxorubicin concentration (G2/M arrest) from 50 to 1 μM: 2 µM
